From patent US8927580B2, “Thiosemicarbazone compounds and use in the treatment of cancer” (Oncochel Therapeutics LLC, priority 2010, dated 2015) come the findings set out here.

The subject of data set [1] is CAPAN-2 pancreatic cancer cells. Nature of the data set: MTT proliferation assay, CAPAN-2. The data set is classed as cell-based. The following applies: Homo sapiens; CAPAN-2, MTT, 72 h. The procedure: (§1) The pancreatic cancer cell lines, including MIAPaCa-2, PANC 1, CAPAN-2 and CFPAC-1 were a generous gift from Prof. Andrew Biankin (Garvan Institute, NSW, Australia). The MIAPaCa-2, PANC 1 and CFPAC-1 cell lines were grown in DMEM medium (Invitrogen) and CAPAN-2 cells were grown in McCoy's medium (Invitrogen). All media was supplemented with 10% (v/v) fetal calf serum (Invitrogen), 1% (v/v) non-essential amino acids (Invitrogen), 1% (v/v) sodium pyruvate (Invitrogen), 2 mM L-glutamine (Invitrogen), 100 μg/mL of streptomycin (Invitrogen), 100 U/ml penicillin (Invitrogen), and 0.28 μg/mL of fungizone.
(§2) To further examine the spectrum of anti-proliferative activity, Dp4cycH4mT was tested against pancreatic cancer in vitro, performing MTT proliferation assays with PANC 1, MIAPaCa-2, CFPAC-1 and CAPAN-2 pancreatic cancer cells. As a comparison, currently used treatments for pancreatic cancer including gemcitabine and 5-fluorouracil were also tested. The iron chelator, DFO, was included as a positive control.
(§3) Table 2A. Anti-proliferative activity of Dp4cycH4mT against pancreatic cancer cell lines. Growth and antiproliferative activity IC50 (μM) values of Dp4cycH4mT in a variety of pancreatic cell lines and in comparison to DFO and the clinically used drugs gemcitabine and 5-fluorouracil as determined by the MTT assay. Cells were seeded and allowed to attach to wells for 24 h and then incubated for 72 h at 37° C. with control medium or the chelators. Results are mean±SD (3 experiments).
(§4) Table 2B. Anti-proliferative activity of Dp4cycH4mT against pancreatic cancer cell lines. IC90 (μM) values of Dp4cycH4mT in a variety of pancreatic cell lines and in comparison to DFO and the clinically used drugs gemcitabine and 5-fluorouracil as determined by the MTT assay. Cells were seeded and allowed to attach to wells for 24 h and then incubated for 72 h at 37° C. with control medium or the chelators. Results are mean±SD (3 experiments).

In data set [2] the test system is MIAPaCa-2 pancreatic cancer cells. Nature of the data set: MTT proliferation assay, MIAPaCa-2. The following applies: Homo sapiens, MIA PaCa-2; MIAPaCa-2, MTT, 72 h. The data set is classed as cell-based. On the procedure:
as §1, §2, §3, §4
A general note: Formazan colour is commonly taken as a measure of viable cells.

Data set [3] has as its system CFPAC-1 pancreatic cancer cells. Nature of the data set: MTT proliferation assay, CFPAC-1. The data set is classed as cell-based. The following applies: Homo sapiens; CFPAC-1, MTT, 72 h. On the procedure: as §1, §2, §3, §4
The subject of data set [4] is PANC 1 pancreatic cancer cells. The data set is described as follows: MTT proliferation assay, PANC 1. The data set is classed as cell-based. The following applies: Homo sapiens; PANC 1, MTT, 72 h. The procedure: as §1, §2, §3, §4
Data set [5] deals with SK-N-MC neuroepithelioma cell line. Nature of the data set: MTT anti-proliferative assay in SK-N-MC cells. The following applies: 72 h at 37° C., mean±SD (3 experiments). The data set is classed as cell-based, human. On the procedure:
The cells were maintained in minimum essential media (MEM; Invitrogen, CA, USA) which contained 10% fetal calf serum (FCS; JRH Biosciences, Kansas, USA), 1% non-essential amino acids (Gibco, Victoria, Australia), 1% penicillin/streptomycin/glutamine (Gibco, VIC, Australia) and fungizone ([…]; Squibb Pharmaceuticals, Montreal, Canada).
The ability of the compounds to inhibit cellular proliferation was assessed initially in SK-N-MC cells by the MTT assay.
Table 1. […] Cells were seed and allowed to attach to wells for 24 h and then incubated for 72 h at 37° C. with control medium or the chelators.

The subject of data set [6] is SK-N-MC neuroepithelioma cells. The data set is described as follows: Iron uptake assay (59Fe uptake from 59Fe-transferrin). The data set is classed as cell-based, human. The following applies: 25 μM chelator, 3 h at 37° C., 59Fe-Tf. The procedure:
Cells were cultured in the same way as for the iron efflux experiments. […] At the end of the incubation the culture dishes were placed on ice, the media aspirated, and the cells washed 4 times with ice cold PBS. Protease (1 mL; 1 mg/mL; Sigma-Aldrich, NSW, Australia) solution was added to each plate and allowed to incubate on ice for 30 min. This facilitated the removal of membrane bound ^59Fe-Tf. Cells were then scraped from the plastic surface using a Teflon spatula and collected in Eppendorf tubes. These were centrifuged at 10000 rpm and 4° C. for 3 min. The supernatant was then transferred into counting tubes and the cell pellet resuspended in PBS before also being transferred into another set of counting tubes. Radioactivity was measured using a Wallac Wizard 3″ Gamma Counter (PerkinElmer, MA, USA). Results are expressed as average ^59Fe content of the cellular fraction as a percentage of the control value.

The subject of data set [7] is SK-N-MC neuroepithelioma cells. Nature of the data set: Iron efflux assay (59Fe release from pre-labeled cells). The class given is cell-based, human. The following applies: 25 μM chelator, 3 h at 37° C. The procedure: The culture dishes were then placed on ice, the supernatant containing excess ^59Fe-Tf was aspirated and the cells washed 4 times with ice-cold PBS. […] After 3 h the culture dishes were again placed on ice, the media was collected in counting tubes and this provided a measurement of released ^59Fe. Ice-cold PBS (1 mL) was added to plates containing cells and cells were scraped from the plastic surface using a Teflon spatula and also collected in counting tubes. These tubes represent the intracellular ^59Fe content. Results are expressed as total ^59Fe released as a percentage of total ^59Fe present. Radioactivity was measured using a Wallac Wizard 3″ Gamma Counter (PerkinElmer, MA, USA).

The conditions of data set [8]: mouse, in vivo.
In data set [9] the test system is PANC 1 human pancreatic carcinoma. Nature of the data set: PANC 1 xenograft in nude mice: tumour growth. The class given is in vivo, nude mice (BALBc nu/nu). On the procedure:
FIG. 5). […] (5 mg/kg) or vehicle control.

The subject of data set [10] is DMS-53 human lung carcinoma. The data set is described as follows: DMS-53 xenograft in nude mice, i.v. administration: tumour growth. The class given is in vivo, nude mice (BALBc nu/nu).
Data set [11] in a line: DMS-53 xenograft oral study: body and organ weights, haematology, biochemistry, histology. The data set is classed as in vivo, nude mice (BALBc nu/nu).
A short description of data set [12]: DMS-53 xenograft i.v. study: body and organ weights, haematology, histology. The following applies: for HCT / HGB / PLT / RBC / WBC / Body weight (% of initial weight) / Brain weight / Heart weight / Kidney weight / Liver weight / Spleen weight / weight loss (% of initial body weight): i.v.; for HCT / HGB / PLT / RBC / WBC: average; for weight loss (% of initial body weight): after 25 days. The class given is in vivo, nude mice (BALBc nu/nu).

For data set [13], the system named is DMS-53 human lung carcinoma. The data set is described as follows: DMS-53 xenograft in nude mice, oral gavage: tumour growth. The following applies: for Tumour weight: 21 days; for net tumour size (% of initial tumour volume): after 21 days. The class given is in vivo, nude mice (BALBc nu/nu).

Structures can show the parent of a compound that is named as a salt.

As to `O=c1[nH]cc(F)c(=O)[nH]1` [5-fluorouracil], the IC50 in [1] came out at 59.2 ± 24.2 µM; in data set [2], 24.3 ± 6.3 µM; in [3], 41.2 ± 1.1 µM; in data set [4], 62.3 ± 6.5 µM. Besides, the IC90 is more than 80 µM in [1], more than 5 µM in data set [2], more than 40 µM in data set [3] and more than 20 µM in [4].
In the case of `CC(=O)N(O)CCCCCNC(=O)CCC(=O)N(O)CCCCCNC(=O)CCC(=O)N(O)CCCCCN` [DFO, desferrioxamine], the IC50 in data set [1] is 7 ± 5.4 µM; in data set [5] (Homo sapiens), 13.4 ± 3.7 µM; in [2], 38.7 ± 6.2 µM; in data set [3] it was 14.7 ± 3.1 µM; in data set [4], 9.5 ± 1.4 µM. Besides, the IC90 in data set [1], in data set [2], in data set [3] and in data set [4] was more than 80 µM in each case. For the same compound, the “cellular 59Fe uptake (% of the control)” value in [6] turned out to be 84%. For the same compound, the “cellular 59Fe mobilised (59Fe released as percentage of total 59Fe)” value in data set [7] was 16%.
For the compound `CN(C(=S)NN=C(c1ccccn1)c1ccccn1)C1CCCCC1` [Dp4cycH4mT.HCl, di-2-pyridylketone 4-cyclohexyl-4-methyl-3-thiosemicarbazone], in [8], the “MYOCARDIUM Fibrosis” value is recorded as “−”, the “MYOCARDIUM HP (histopathological changes)” value is recorded as “N”, the “SPLEEN HPC (score for the presence of haematopoietic cells in the splenic red pulp)” value is on record as “N” and the “iron deposits in the kidney” value was “iron deposits were observed”. Moreover, in data set [9] (after 6 weeks, 5 mg/kg i.v. 5 days/week), the “average tumour size (% of the original tumour size)” value was 112%. Besides, the final tumour weight in data set [9] (after 43 days, 5 mg/kg i.v.) amounted to 40 ± 12 mg.
For the compound `CCN(C)C(=S)NN=C(c1ccccn1)c1ccccn1` [Dp4e4mT.HCl, di-2-pyridylketone 4-ethyl-4-methyl-3-thiosemicarbazone], the Tumour weight in [10] (1.5 mg/kg) was found to be 0.48 ± 0.6 g. In addition, the Tumour weight in data set [10] (4 mg/kg) was 0.11 ± 0.09 g. Besides, the Tumour weight in data set [10] (6 mg/kg) came to 0.04 ± 0.03 g. Also, the “myocardial lesions (Gomori-Trichrome stain)” value in data set [11] (Dp44mT 0.75 mg/kg, Dp4e4mT.HCl 3 weeks at 2.5, 5, 7.5 and 10 mg/kg oral) is “did not induce myocardial lesions”. Further, the “histology of the liver, spleen, kidney, brain or tumour (H & E) vs control” value in data set [11] (Dp44mT 2 weeks at 0.75 mg/kg, Dp4e4mT.HCl 3 weeks at 2.5, 5, 7.5 and 10 mg/kg oral) was “no significant differences”. In addition, in data set [11] (oral gavage 21 days, 5 mg/kg), the “Total Iron-Binding Capacity (TIBC)” value came out at 53.1 ± 1.2 µmol/L. Moreover, in [11] (oral gavage 21 days, 10 mg/kg), the “Alkaline Phosphatase (ALP)” value stood at 89.5±4.5 U/L. The “Body weight (% initial)” value in data set [11] (oral, 10 mg/kg) stood at 94 % initial. Also, the “histology of the liver, spleen, kidney, brain or tumour (H & E) vs control” value in [12] (2 weeks i.v., Dp44mT 0.75 mg/kg, Dp4e4mT.HCl 4 and 6 mg/kg) was “no significant differences”. Also, the “myocardial lesions (Gomori-Trichrome stain)” value in data set [12] (2 weeks i.v., Dp44mT 0.75 mg/kg, Dp4e4mT.HCl 4 or 6 mg/kg) is “did not induce myocardial lesions”. Also, the “change in red blood cell count, haemoglobin or white blood cell count” value in [12] (after 2 weeks, Dp44mT 0.75 mg/kg, Dp4e4mT.HCl 1.5, 4 or 6 mg/kg i.v.) is reported as “no significant change”. Also, in [12] (1.5 mg), the HCT was 0.4, the HGB came to 150.60 g/L, the PLT is on record as 766.4 10 × 9 cells/L and the RBC was 8.76 10 × 12 cells/L. Also, in data set [12] (1.5 mg), the WBC is listed as 3.34 10 × 9 cells/L. Also, in data set [12] (1.5 mg/kg), the “Body weight (% of initial weight)” value came out at 95.14 ± 0.97 % initial weight, the Brain weight is reported as 0.26 ± 0.13 g, the Heart weight came out at 0.1 ± 0.004 g and the Kidney weight worked out at 0.26 ± 0.01 g. Moreover, in [12] (1.5 mg/kg), the Liver weight was 1.01 ± 0.02 g and the Spleen weight is 0.11 ± 0.01 g. For the same compound, in data set [12] (4 mg), the HCT came out at 0.47, the HGB was found to be 153.75 g/L, the PLT was 1224.5 10 × 9 cells/L and the RBC was 10.74 10 × 12 cells/L. For the same compound, in data set [12] (4 mg), the WBC is recorded as 2.94 10 × 9 cells/L. Further, in data set [12] (4 mg/kg), the “Body weight (% of initial weight)” value turned out to be 99.41 ± 1.75 % initial weight, the Brain weight is reported as 0.36 ± 0.01 g, the Heart weight is recorded as 0.1 ± 0.01 g and the Kidney weight was 0.26 ± 0.01 g. In data set [12] (4 mg/kg), the Liver weight was found to be 1.03 ± 0.02 g, the Spleen weight worked out at 0.08 ± 0.003 g and the “weight loss (% of initial body weight)” value is 0.6%. Moreover, in data set [12] (6 mg), the HCT was determined as 0.41, the HGB is 132.33 g/L, the PLT was 1238 10 × 9 cells/L and the RBC is reported as 9.33 10 × 12 cells/L. Moreover, in data set [12] (6 mg), the WBC is 4.63 10 × 9 cells/L. Moreover, in data set [12] (6 mg/kg), the “Body weight (% of initial weight)” value stood at 93.38 ± 3.96 % initial weight, the Brain weight worked out at 0.36 ± 0.03 g, the Heart weight was 0.11 ± 0.01 g and the Kidney weight is 0.27 ± 0.01 g. For the same compound, in [12] (6 mg/kg), the Liver weight amounted to 1.1 ± 0.08 g, the Spleen weight came to 0.089 ± 0.01 g and the “weight loss (% of initial body weight)” value amounted to 7%. In [13] (2.5 mg/kg), the Tumour weight was determined as 0.63 g and the “net tumour size (% of initial tumour volume)” value was 645%. Also, the “net tumour size (% of initial tumour volume)” value in data set [13] (5 mg/kg) is listed as 733%. This compound also showed a Tumour weight in [13] (10 mg/kg) of 0.46 g.
For `O=C(NN=Cc1c(O)ccc2ccccc12)c1ccncc1` [compound 311, 2-hydroxy-1-naphthylaldehyde isonicotinoyl hydrazone, reference compound], the IC50 in [5] stood at 0.72 ± 0.32 µM. Also, the “cellular 59Fe uptake (% of the control)” value in data set [6] amounted to 5%.

In general, IC50 refers to the concentration at which inhibition is half-maximal. Read a high IC50 as a need for much substance. One may read the IC90 as the concentration at which the effect reaches the 90% level.
